Results as given in ChEMBL document CHEMBL3885881, “DrugMatrix”.

Species: Rattus norvegicus
Assay: DrugMatrix - Regimen: Daily Repeat
Type: toxicity, organism-based, Sprague-Dawley
Set-up: regimen Daily Repeat, gender Male, age 6-8 weeks
Details: in vivo, po, route oral GAVAGE, vehicle 100 % WATER; for ABSOLUTE BASOPHIL / ABSOLUTE EOSINOPHIL / ABSOLUTE LYMPHOCYTE / ABSOLUTE MONOCYTE / ABSOLUTE SEGMENTED NEUTROPHIL / BASOPHIL / EOSINOPHIL / ERYTHROCYTE COUNT / HEMATOCRIT / HEMOGLOBIN / LEUKOCYTE COUNT / LYMPHOCYTE / MEAN CORPUSCULAR HEMOGLOBIN / MEAN CORPUSCULAR HEMOGLOBIN CONCENTRATION / MEAN CORPUSCULAR VOLUME / MONOCYTE / NEUTROPHIL / NUCLEATED RED BLOOD CELLS / PLATELET COUNT: tissue Blood; for ALANINE AMINOTRANSFERASE / ALBUMIN / ALKALINE PHOSPHATASE / ASPARTATE AMINOTRANSFERASE / BLOOD UREA NITROGEN / CARBON DIOXIDE / CHLORIDE / CHOLESTEROL / CREATINE PHOSPHOKINASE / CREATININE / GLUCOSE / LACTATE DEHYDROGENASE / LIPASE / PHOSPHORUS / POTASSIUM / SODIUM / TOTAL BILIRUBIN / TOTAL PROTEIN / URIC ACID: tissue Plasma
[1] = 56 mg/kg, 120 h, dose level Low, time 5 day
[2] = 476 mg/kg, 72 h, dose level High, time 3 day
[3] = 476 mg/kg, 120 h, dose level High, time 5 day

SMILES: CC[C@H]1OC(=O)[C@H](C)[C@@H](O[C@H]2C[C@@](C)(OC)[C@@H](O)[C@H](C)O2)[C@H](C)[C@@H](O[C@@H]2O[C@H](C)C[C@H](N(C)C)[C@H]2O)[C@](C)(OC)C[C@@H](C)C(=O)[C@H](C)[C@@H](O)[C@]1(C)O [CLARITHROMYCIN]
- ABSOLUTE BASOPHIL [1]: 0 CELLS/uL
- ABSOLUTE EOSINOPHIL [1]: 40 CELLS/uL
- ABSOLUTE LYMPHOCYTE [1]: 7764 CELLS/uL
- ABSOLUTE MONOCYTE [1]: 32 CELLS/uL
- ABSOLUTE SEGMENTED NEUTROPHIL [1]: 364 CELLS/uL
- BASOPHIL [1]: 0%
- EOSINOPHIL [1]: 0.67%
- ERYTHROCYTE COUNT [1]: 5.84 x10E6/uL
- HEMATOCRIT [1]: 35.03%
- HEMOGLOBIN [1]: 13.63 G/DL
- LEUKOCYTE COUNT [1]: 8.2 x10E3/uL
- LYMPHOCYTE [1]: 94.67%
- MEAN CORPUSCULAR HEMOGLOBIN [1]: 23.37 pg
- MEAN CORPUSCULAR HEMOGLOBIN CONCENTRATION [1]: 38.9 G/DL
- MEAN CORPUSCULAR VOLUME [1]: 60.03 fL
- MONOCYTE [1]: 0.33%
- NEUTROPHIL [1]: 4.33%
- NUCLEATED RED BLOOD CELLS [1]: 0 /100WBC
- PLATELET COUNT [1]: 1127.33 x10E3/uL
- ALANINE AMINOTRANSFERASE [1]: 56 u/L
- ALBUMIN [1]: 3.97 G/DL
- ALKALINE PHOSPHATASE [1]: 322 u/L
- ASPARTATE AMINOTRANSFERASE [1]: 90.33 u/L
- BLOOD UREA NITROGEN [1]: 16.67 mg/dL
- CARBON DIOXIDE [1]: 34 mmol/L
- CHLORIDE [1]: 98.67 MEQ/L
- CHOLESTEROL [1]: 84 mg/dL
- CREATINE PHOSPHOKINASE [1]: 286 u/L
- CREATININE [1]: 0.11 mg/dL
- GLUCOSE [1]: 141 mg/dL
- LACTATE DEHYDROGENASE [1]: 125 u/L
- LIPASE [1]: 13 u/L
- PHOSPHORUS [1]: 11.17 mg/dL
- POTASSIUM [1]: 6.34 MEQ/L
- SODIUM [1]: 144.27 MEQ/L
- TOTAL BILIRUBIN [1]: 0.17 mg/dL
- TOTAL PROTEIN [1]: 5.97 G/DL
- URIC ACID [1]: 0.73 mg/dL
- ABSOLUTE BASOPHIL [2]: 0 CELLS/uL
- ABSOLUTE EOSINOPHIL [2]: 46 CELLS/uL
- ABSOLUTE LYMPHOCYTE [2]: 13692.67 CELLS/uL
- ABSOLUTE MONOCYTE [2]: 172 CELLS/uL
- ABSOLUTE SEGMENTED NEUTROPHIL [2]: 556 CELLS/uL
- BASOPHIL [2]: 0%
- EOSINOPHIL [2]: 0.33%
- ERYTHROCYTE COUNT [2]: 5.74 x10E6/uL
- HEMATOCRIT [2]: 36.57%
- HEMOGLOBIN [2]: 14.2 G/DL
- LEUKOCYTE COUNT [2]: 14.47 x10E3/uL
- LYMPHOCYTE [2]: 94.67%
- MEAN CORPUSCULAR HEMOGLOBIN [2]: 24.73 pg
- MEAN CORPUSCULAR HEMOGLOBIN CONCENTRATION [2]: 38.83 G/DL
- MEAN CORPUSCULAR VOLUME [2]: 63.7 fL
- MONOCYTE [2]: 1%
- NEUTROPHIL [2]: 4%
- NUCLEATED RED BLOOD CELLS [2]: 0 /100WBC
- PLATELET COUNT [2]: 1345 x10E3/uL
- ALANINE AMINOTRANSFERASE [2]: 55.33 u/L
- ALBUMIN [2]: 3.8 G/DL
- ALKALINE PHOSPHATASE [2]: 227.33 u/L
- ASPARTATE AMINOTRANSFERASE [2]: 72.33 u/L
- BLOOD UREA NITROGEN [2]: 8.33 mg/dL
- CARBON DIOXIDE [2]: 29.67 mmol/L
- CHLORIDE [2]: 99.33 MEQ/L
- CHOLESTEROL [2]: 68 mg/dL
- CREATINE PHOSPHOKINASE [2]: 191.67 u/L
- CREATININE [2]: 0.37 mg/dL
- GLUCOSE [2]: 161 mg/dL
- LACTATE DEHYDROGENASE [2]: 112 u/L
- LIPASE [2]: 28.67 u/L
- PHOSPHORUS [2]: 11.53 mg/dL
- POTASSIUM [2]: 6.1 MEQ/L
- SODIUM [2]: 142.2 MEQ/L
- TOTAL BILIRUBIN [2]: 0.13 mg/dL
- TOTAL PROTEIN [2]: 5.83 G/DL
- URIC ACID [2]: 1.23 mg/dL
- ABSOLUTE BASOPHIL [3]: 0 CELLS/uL
- ABSOLUTE EOSINOPHIL [3]: 0 CELLS/uL
- ABSOLUTE LYMPHOCYTE [3]: 10830 CELLS/uL
- ABSOLUTE MONOCYTE [3]: 144.67 CELLS/uL
- ABSOLUTE SEGMENTED NEUTROPHIL [3]: 592 CELLS/uL
- BASOPHIL [3]: 0%
- EOSINOPHIL [3]: 0%
- ERYTHROCYTE COUNT [3]: 5.53 x10E6/uL
- HEMATOCRIT [3]: 34.87%
- HEMOGLOBIN [3]: 13.93 G/DL
- LEUKOCYTE COUNT [3]: 11.57 x10E3/uL
- LYMPHOCYTE [3]: 94%
- MEAN CORPUSCULAR HEMOGLOBIN [3]: 25.2 pg
- MEAN CORPUSCULAR HEMOGLOBIN CONCENTRATION [3]: 40 G/DL
- MEAN CORPUSCULAR VOLUME [3]: 63.07 fL
- MONOCYTE [3]: 1%
- NEUTROPHIL [3]: 5%
- NUCLEATED RED BLOOD CELLS [3]: 0 /100WBC
- PLATELET COUNT [3]: 1171.67 x10E3/uL
- ALANINE AMINOTRANSFERASE [3]: 58 u/L
- ALBUMIN [3]: 3.67 G/DL
- ALKALINE PHOSPHATASE [3]: 256.67 u/L
- ASPARTATE AMINOTRANSFERASE [3]: 67 u/L
- BLOOD UREA NITROGEN [3]: 13.33 mg/dL
- CARBON DIOXIDE [3]: 34.67 mmol/L
- CHLORIDE [3]: 98 MEQ/L
- CHOLESTEROL [3]: 64.33 mg/dL
- CREATINE PHOSPHOKINASE [3]: 178.33 u/L
- CREATININE [3]: 0.18 mg/dL
- GLUCOSE [3]: 126.67 mg/dL
- LACTATE DEHYDROGENASE [3]: 105.33 u/L
- LIPASE [3]: 11.67 u/L
- PHOSPHORUS [3]: 9.63 mg/dL
- POTASSIUM [3]: 6.01 MEQ/L
- SODIUM [3]: 142.53 MEQ/L
- TOTAL BILIRUBIN [3]: 0.13 mg/dL
- TOTAL PROTEIN [3]: 5.9 G/DL
- URIC ACID [3]: 0.6 mg/dL
